{"source": "paper PMC10470178", "about": "“Long-acting lenacapavir protects macaques against intravenous challenge with simian-tropic HIV” (eBioMedicine, 2023)", "key": {"stHIV-A19": {"system": "stHIV-A19", "assay": "Multi-round replication assay of stHIV-A19 in pigtail macaque PBMCs (PERT readout)", "format": "cell-based, simian-tropic HIV-1", "conditions": "for mean EC95 against stHIV-A19 in pigtail macaque PBMC: PTM PBMCs, three donors, RT in supernatant at 7 days, calculated from EC50 with Hill coefficient 3.51", "description": "Infectious stocks of stHIV-A19,[23] HIV-1 NL4-3, and SIVmac239 were produced in HEK-293T (RRID: CVCL_1926) cells transfected with full-length viral genome plasmids using the TransIT HEK-293 transfection reagent (Mirus Bio) according to the manufacturer’s instructions. Virus stock infectious titres were determined on TZM-bl reporter cells (RRID: CVCL_B478) as previously described.[26] For experiments using SupT1-CCR5 target cells (RRID: CVCL_X633),[27] cultures were maintained in RPMI 1640 medium supplemented with 10% foetal bovine serum (FBS), 2 mM glutamine, 100 U/ml penicillin, and 100 μg/ml streptomycin. SupT1-CCR5 cells were inoculated with stHIV-A19, HIV-1 NL4-3, or SIVmac239 at a multiplicity of infection (MOI) = 0.0125 and cultured at 37 °C for 4 h. Cells were then washed three times to remove input virus, counted, and cultured in triplicate in growth media containing serial threefold dilutions of LEN or no LEN (control). The concentration of DMSO (LEN vehicle) was maintained at 0.5% for all cultures. Culture supernatants were collected 7 days post-inoculation, clarified by centrifugation, and stored at −80 °C for later quantification of vRNA by quantitative reverse transcription polymerase chain reaction (qRT-PCR). Primary human peripheral blood mononuclear cells (PBMCs) from anonymous HIV-negative donors were isolated from leukopaks obtained from the New York Blood Center for experiments using primary human and PTM PBMC. […] The stHIV-A19 stock was quantified with a SYBR Green-based qPCR-based product-enhanced RT (PERT) assay using a purified reverse transcriptase (RT) protein standard, as previously described.[28] […] After 7 days, the virus in culture supernatants was quantified using the PERT assay. […] The EC95 for LEN against stHIV-A19 was then calculated from its corresponding EC50 values using the ECanything equation: ECF = EC50 × (F/100-F)^1/n, where F equals the percent response (e.g., 95) and n equals the Hill coefficient for LEN (n = 3.51) as previously described.[16]"}, "[1]": {"format": "in vivo, pigtail macaques (Macaca nemestrina)", "description": "Sixteen male, purpose-bred pigtail macaques (Macaca nemestrina; ages 4.6–8.5 years at the time of study initiation) were housed at NIH-Bethesda (Supplementary Table S1). All study animals received enrofloxacin (10 mg/kg, administered orally, once per day for 10 days), paromomycin (25 mg/kg, administered orally, twice daily for 7–10 days), and fenbendazole (50 mg/kg administered orally, once per day for 5 days) two weeks to 43 months prior to study initiation. Lenacapavir or drug vehicle (sterile, preservative-free 57.5% w/v polyethylene glycol 300 in water) doses were administered to sedated animals via SC injection into the scapular region such that no more than 2 ml of solution was injected into a single SC site. Animals in the LEN pharmacokinetic evaluation study (N = 6) each received two doses of LEN, both at 15 mg/kg (N = 3) or at 50 mg/kg (N = 3), 6 weeks apart. Animals in the virus challenge experiment each received a single dose of LEN at 25 mg/kg (N = 3, LEN PrEP group) or drug vehicle (N = 4, vehicle control group) 30 days prior to stHIV-A19 challenge, or a cART regimen consisting of tenofovir disoproxil fumarate (TDF), emtricitabine (FTC), and dolutegravir (DTG) (N = 3, TDF/FTC/DTG group), coformulated and administered as previously described[29]^,[30] for 7 days beginning 3 days prior to stHIV-A19 challenge (Supplementary Figure S1). Hair was clipped and skin marked at LEN and vehicle injection sites to allow for subsequent visual and manual assessment and scoring of potential ISRs by non-blinded veterinary care staff. Complete blood counts (CBC) and serum chemistries were monitored prior to and at 2- to 4-week intervals after LEN administration for at least one year. Following the first dose of LEN in the PK study, one animal in the 50-mg/kg dosing group received 7 consecutive days of daily ketoprofen (2 mg/kg) administered intramuscularly for ISR analgesia at veterinary discretion. For the second dose of LEN in the PK study, all animals in the 50-mg/kg dosing group received 5–7 consecutive days of twice daily oral carprofen (2 mg/kg) analgesia administered prophylactically starting on the day of LEN dosing. In the IV challenge PrEP study, all LEN and vehicle control animals received 3–5 consecutive days of twice daily oral carprofen (2 mg/kg) analgesia administered prophylactically starting on the day of injection. For virus challenge, PrEP study animals each received 1 × 10^5 infectious units of stHIV-A19 injected intravenously. After LEN washout, LEN PrEP group animals received a single 50-mg/kg dose of rhesusized depleting anti-CD8α antibody (MT807R1, RRID: AB_2716320, NIH Nonhuman Primate Reagent Resource), administered SC to anesthetized animals."}}, "note": "Where “and” joins values, the source holds several entries; their conditions need not be identical. Identical values can stand only once. Like-named read-outs stand apart in the source and are kept apart here."}
{"smiles": "CC(C)(C#Cc1ccc(-c2ccc(Cl)c3c(NS(C)(=O)=O)nn(CC(F)(F)F)c23)c([C@H](Cc2cc(F)cc(F)c2)NC(=O)Cn2nc(C(F)(F)F)c3c2C(F)(F)[C@@H]2C[C@H]32)n1)S(C)(=O)=O", "note": "[LEN, Lenacapavir]", "values": [{"measurement": "plasma protein binding-adjusted EC95 (PA-EC95) against stHIV-A19 in PTMs", "setting": "stHIV-A19; EC95 in PTM PBMC adjusted by 9.7-fold plasma shift", "result": "1.46 (±0.07 SD) nM and 1.46 nM"}, {"measurement": "mean EC95 against stHIV-A19 in pigtail macaque PBMC", "setting": "stHIV-A19", "result": "149 ± 7", "unit": "pM"}, {"measurement": "mean EC95 against stHIV-A19 in pigtail macaque PBMC", "setting": "stHIV-A19; listed as Lenacapavir", "result": "149 (±7 SD) pM"}, {"measurement": "ISR cumulative incidence: Erythema", "setting": "[1]; 15 mg/kg SC, Dose 1", "result": "3/3"}, {"measurement": "ISR cumulative incidence: Hyperkeratosis", "setting": "[1]; 15 mg/kg SC, Dose 1", "result": "2/3"}, {"measurement": "ISR cumulative incidence: Nodule", "setting": "[1]; 15 mg/kg SC, Dose 1", "result": "3/3"}, {"measurement": "ISR cumulative incidence: Ulceration", "setting": "[1]; 15 mg/kg SC, Dose 1", "result": "0/3"}, {"measurement": "ISR cumulative incidence: Erythema", "setting": "[1]; 15 mg/kg SC, Dose 2", "result": "0/3"}, {"measurement": "ISR cumulative incidence: Hyperkeratosis", "setting": "[1]; 15 mg/kg SC, Dose 2", "result": "0/3"}, {"measurement": "ISR cumulative incidence: Nodule", "setting": "[1]; 15 mg/kg SC, Dose 2", "result": "1/3"}, {"measurement": "ISR cumulative incidence: Ulceration", "setting": "[1]; 15 mg/kg SC, Dose 2", "result": "0/3"}, {"measurement": "ISR cumulative incidence: Erythema", "setting": "[1]; 25 mg/kg SC, Dose 1", "result": "0/3"}, {"measurement": "ISR cumulative incidence: Hyperkeratosis", "setting": "[1]; 25 mg/kg SC, Dose 1", "result": "2/3"}, {"measurement": "ISR cumulative incidence: Nodule", "setting": "[1]; 25 mg/kg SC, Dose 1", "result": "3/3"}, {"measurement": "ISR cumulative incidence: Ulceration", "setting": "[1]; 25 mg/kg SC, Dose 1", "result": "2/3"}, {"measurement": "ISR cumulative incidence: Erythema", "setting": "[1]; 50 mg/kg SC, Dose 1", "result": "0/3"}, {"measurement": "ISR cumulative incidence: Hyperkeratosis", "setting": "[1]; 50 mg/kg SC, Dose 1", "result": "0/3"}, {"measurement": "ISR cumulative incidence: Nodule", "setting": "[1]; 50 mg/kg SC, Dose 1", "result": "3/3"}, {"measurement": "ISR cumulative incidence: Ulceration", "setting": "[1]; 50 mg/kg SC, Dose 1", "result": "1/3"}, {"measurement": "ISR cumulative incidence: Erythema", "setting": "[1]; 50 mg/kg SC, Dose 2", "result": "0/3"}, {"measurement": "ISR cumulative incidence: Hyperkeratosis", "setting": "[1]; 50 mg/kg SC, Dose 2", "result": "2/3"}, {"measurement": "ISR cumulative incidence: Nodule", "setting": "[1]; 50 mg/kg SC, Dose 2", "result": "3/3"}, {"measurement": "ISR cumulative incidence: Ulceration", "setting": "[1]; 50 mg/kg SC, Dose 2", "result": "2/3"}, {"measurement": "complete blood counts (CBC) and blood serum chemistries", "setting": "[1]; PTMs that received SC LEN injections", "result": "No abnormalities or significant changes"}, {"measurement": "injection site reactions (ISRs), severity", "setting": "[1]; some animals following some SC LEN injections", "result": "Mild to moderate"}]}
